From patent US12391685B2, “Inhibitors of RNA-guided nuclease target binding and uses thereof” (THE BROAD INSTITUTE, INC., priority 2018, dated 2025)

How the values were obtained:
[1] = molecular target: T1, SpCas9 (Streptococcus pyogenes serotype M1, UniProt Q99ZW2); assay: Cellular thermal shift assay (CETSA) in WM793 melanoma cells; assay type: cell-based, S. pyogenes; settings: 15 μM, 24 h, WM793 cells stably expressing SpCas9
Protocol: Cellular Thermal Shift Assay (CETSA). Approximately 1× 10^6 cells pre-incubated with either DMSO or 15 μM BRD0539 for 24 h were resuspended in PBS and transferred to 200 μL PCR tubes. The suspended cells were heated to a different temperature for 3 min followed by lysis in 100 μL RIPA buffer containing protease inhibitors at 4° C. for 30 min. The clear cell lysate was collected by centrifuging the suspensions at 20,000×g for 20 min. The supernatant was transferred to a fresh tube and processed for Western blotting. Western blotting was performed using SDS-PAGE. In a typical experiment, 10 μg of proteins were electrophoresed on a 4-12% Bis-Tris gel and proteins were transferred to a PVDF membrane and probed with primary anti-SpCas9 antibody (abcam #ab191468). The membrane was imaged and bands were quantified using the LI-COR Odyssey imaging system. The CETSA curves were fitted with the equation, y=(U-L)/(1+e^(−(A/T−1)B))+L where, U and L are the upper and lower asymptotes, A is a half-way temperature, and B controls the slope of the sigmoid; temperature T is expressed in K. After the fitting, the data were re-normalized by dividing by U and the Tm was calculated using the formula Tm=AB/(B+log(1−2L/U)).

[2] = molecular target: T1, SpCas9; assay type: cell-based, S. pyogenes; set-up: made in house; host or cells: E. coli Rosetta (DE3); settings: not told
From the text: FIGS. 8A-8H—Structure-activity analysis and inhibition of dCas9-based transcriptional upregulation. (FIG. 8A) Structure-activity relationship studies of BRD3433 in the eGFP-disruption assay in U2OS.eGFP.PEST cells. The set of functional groups on top represents variation at the 1-N-cap position (R^1) whereas those at the bottom represents the functional group variation at the 8-position (R^2). Bar plot depicts the reduction in the activity of different structural analogs with respect to that of BRD3433. Asterisk-labeled compounds contain a methyl group at the 4-N position, while others have a proton. The data are an average of two biological replicates. (FIG. 8B) Inhibition of dSpCas9-based transcriptional upregulation of HBG1 gene in HEK293FT cells by BRD7087. Cells were transfected with dSpCas9, MS2.p65.HSF1.GFP plasmids along with either RFP or HBG1 gRNA plasmid and incubated in the presence of the small molecules at the indicated concentration for 48 h before RT-qPCR analysis. Data represents average of 6 technical replicates. Y-axis represents % fold change in the compound activity with respect to BRD7087. […] (FIG. 8D) Cellular impermeability of the anti-CRISPR protein AcrllA4 assessed by lack of SpCas9 inhibition in the eGFP-disruptoin assay when AcrLLA4 is incubated in the media. […] (FIG. 8F) Human plasma stability of compound as determined by UPLC/MS in MRM method. […]

[3] = Plasma stability assay; assay type: in vitro ADME; settings: 5 μM, 50% human plasma in PBS, 5 h
Protocol: Plasma stability assay. Human plasma stability of the compounds was performed following a reported protocol (Di et al., 2005). BRD0539 (5 μM) was incubated with 50% human plasma (K2 EDTA, BioreclamationIVT) in PBS for 5 h in triplicate. Eucatropine (Aldrich) and verapamil (Acros) were included as the positive and negative control, respectively. The samples were analyzed by UPLC-MS (AB Sciex 4500 with Waters Acquity FTN) with compounds detected by […] mass spectrometer. All integration and analysis were performed using DiscoveryQuant software.

T1 sequence (Q99ZW2 whole entry): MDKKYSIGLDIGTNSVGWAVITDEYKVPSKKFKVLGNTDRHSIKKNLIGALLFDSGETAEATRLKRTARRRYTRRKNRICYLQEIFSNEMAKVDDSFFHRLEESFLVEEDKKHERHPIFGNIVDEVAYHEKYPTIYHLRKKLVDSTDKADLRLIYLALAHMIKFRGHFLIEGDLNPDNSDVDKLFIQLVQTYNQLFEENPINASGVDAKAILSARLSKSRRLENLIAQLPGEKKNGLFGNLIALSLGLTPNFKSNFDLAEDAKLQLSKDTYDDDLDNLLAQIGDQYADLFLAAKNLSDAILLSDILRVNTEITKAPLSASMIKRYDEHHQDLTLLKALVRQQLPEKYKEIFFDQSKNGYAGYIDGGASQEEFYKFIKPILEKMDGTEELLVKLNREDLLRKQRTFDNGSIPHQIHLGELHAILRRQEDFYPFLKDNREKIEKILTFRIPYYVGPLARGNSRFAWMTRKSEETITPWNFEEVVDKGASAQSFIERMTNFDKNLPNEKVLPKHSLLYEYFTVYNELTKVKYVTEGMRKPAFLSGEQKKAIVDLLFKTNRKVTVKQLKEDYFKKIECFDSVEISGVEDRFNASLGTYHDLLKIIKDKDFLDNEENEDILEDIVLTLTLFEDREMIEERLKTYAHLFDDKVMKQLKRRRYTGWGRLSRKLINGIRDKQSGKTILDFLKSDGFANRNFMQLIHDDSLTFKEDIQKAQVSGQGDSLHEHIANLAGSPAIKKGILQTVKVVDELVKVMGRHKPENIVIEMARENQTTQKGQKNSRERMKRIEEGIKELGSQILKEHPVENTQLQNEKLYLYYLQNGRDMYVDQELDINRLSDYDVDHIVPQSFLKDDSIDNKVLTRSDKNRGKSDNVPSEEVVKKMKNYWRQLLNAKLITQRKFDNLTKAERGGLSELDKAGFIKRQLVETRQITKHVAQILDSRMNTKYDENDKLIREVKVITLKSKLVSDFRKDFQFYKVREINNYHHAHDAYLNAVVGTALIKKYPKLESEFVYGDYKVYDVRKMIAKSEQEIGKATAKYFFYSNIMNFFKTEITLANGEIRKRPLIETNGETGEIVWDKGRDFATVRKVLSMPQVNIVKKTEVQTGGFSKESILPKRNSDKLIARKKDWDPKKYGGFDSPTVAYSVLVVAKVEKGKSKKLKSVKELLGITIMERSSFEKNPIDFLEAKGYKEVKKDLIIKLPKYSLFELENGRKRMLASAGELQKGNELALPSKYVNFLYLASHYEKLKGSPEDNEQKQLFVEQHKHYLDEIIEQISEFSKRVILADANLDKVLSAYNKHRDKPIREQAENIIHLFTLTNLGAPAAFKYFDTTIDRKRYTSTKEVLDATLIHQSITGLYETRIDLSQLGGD

Cc1ccc(S(=O)(=O)N2CC[C@@H]3[C@H](CO)Nc4ccc(-c5ccccc5F)cc4[C@@H]32)cc1 [BRD0539, ((3aR,4R,9bR)-8-(2-fluorophenyl)-1-tosyl-2,3,3a,4,5,9b-hexahydro-1H-pyrrolo[3,2-c]quinolin-4-yl) methanol]
lowering in the melting temperature of SpCas9 [1]: ~2.5 °C
cell permeability (in words) [2]: cell permeable
human plasma stability (in words) [3]: stable in human plasma
